Patent US20110117125A1, “COMPOSITIONS AND METHODS FOR THE DELIVERY OF NUCLEIC ACIDS” (TEKMIRA PHARMACEUTICALS CORPORATION, priority 2008, published 2011)

Columns and labels:
[1] = ODN 14 compared with ODN 1; cited from earlier work
Factor VII = Factor VII knockdown in mice by FVII siRNA lipid particles; type: in vivo; details: 40/10/40/10 aminolipid/DSPC/Chol/PEG-S-DMG, IV, C57BL/6 mice, 24 hours post-injection
Description: Factor VII (FVII), a prominent protein in the coagulation cascade, is synthesized in the liver (hepatocytes) and secreted into the plasma. FVII levels in plasma can be determined by a simple, plate-based colorimetric assay. As such, FVII represents a convenient model for determining siRNA-mediated downregulation of hepatocyte-derived proteins, as well as monitoring plasma concentrations and tissue distribution of the nucleic acid lipid particles and siRNA.
FVII activity was evaluated in FVII siRNA-treated animals at 24 hours after intravenous (bolus) injection in C57BL/6 mice. FVII was measured using a commercially available kit (Biophen FVII Kit™; Aniara Corp., Mason, Ohio), following the manufacturer's instructions at a microplate scale. FVII reduction was determined against untreated control mice, and the results were expressed as % Residual FVII. […]
The MTD for these studies was set as the lowest dose causing >7% decrease in body weight and a>200-fold increase in alanine aminotransferase (ALT), a clinical chemistry marker with good specificity for liver damage in rodents. The ED50 was determined from FVII dose-activity curves.
The ability of various lipid formulations to knockdown Factor VII expression was determined in a liver model using Factor VII siRNA, in order to evaluate the impact of aminolipid linker chemistry. […]

5′-AACC GTT GAG GGG CAT-3′ (DNA AACCGTTGAGGGGCAT; DNA, backbone and methylation of C not given here) [ODN 14]
immunostimulatory / biological activity [1]: ODN 14 is a 15-mer oligonucleotide and ODN 1 is the same oligonucleotide having a thymidine added onto the 5′ end making ODN 1 into a 16-mer. No difference in biological activity between ODN 14 and ODN 1 has been detected and both exhibit similar immunostimulatory activity (Mui et al., 2001)

CCCCC/C=C\C/C=C\CCCCCCCCC1(CCCCCCCC/C=C\C/C=C\CCCCC)OCC(CN(C)C)O1 (stereo not shown) [DLin-K-DMA, 2,2-Dilinoleyl-4-dimethylaminomethyl-[1,3]-dioxolane]
improvement of dose (mg/kg) to achieve 50% Factor VII reduction versus ester linkage (DLinDAP lipid) (Factor VII): approximately 100 -fold | improvement of dose (mg/kg) to achieve 50% Factor VII reduction versus ether linkage (DLinDMA lipid) (Factor VII): approximately 10 -fold

5′-TAACGTTGAGGGGCAT-3 (DNA, backbone and methylation of C not given here) [ODN 1]
immunostimulatory / biological activity [1]: ODN 14 is a 15-mer oligonucleotide and ODN 1 is the same oligonucleotide having a thymidine added onto the 5′ end making ODN 1 into a 16-mer. No difference in biological activity between ODN 14 and ODN 1 has been detected and both exhibit similar immunostimulatory activity (Mui et al., 2001)
